According to patent US9650399B2, “Salicylic acid derivatives, pharmaceutically acceptable salt thereof, composition thereof and method of use thereof” (The Governing Council of the University of Toronto, priority 2012, dated 2017):

Assays:
Assay type in all cases: cell-based, human
[1] = tested on: 147EF; assay: alamarBlue cell viability, BTSC 147EF; settings: Table 4 library screen; for IC50: Homo sapiens
Excerpt: BTSC spheres were dissociated to single cells with the enzyme Accumax (Innovative Technologies), seeded at 1500 cells/96-well and treated with drug or vehicle (DMSO) one day after plating. Cytotoxicity studies were repeated independently at Sickkids Hospital using BTSC lines 25M, 67EF, 73EF, 84EF and 127EF. BTSC spheres were dissociated to single cells as above and plated in 96 well plates in triplicate at 3000 cells/96-well. In both sets of experiments drugs were used as serial dilutions within the range of 5 μM to 100 nM in the first set and 25 μM to 10 nM. Cell viability following drug treatment was assessed three days later using the ALAMARBLUE™ assay (Invitrogen) according to the manufacturer's instructions. All culture experiments were performed in triplicate with a minimum of three wells per condition. Table 4 below illustrates a screen of the library against a number of BTSCs using ALAMARBLUE™ assay.

[2] = tested on: BTSC30M; assay: alamarBlue cell viability, BTSC 30M; settings: Table 4 library screen, alamarBlue; for IC50: Homo sapiens, read-out: 30M IC50 (μM)
Description: (§1) First, the library was screened for biological activity against a set of three representative GBM BTSCs derived from GBM patients, including the very aggressive GBM BTSC lines, BTSC73M, BTSC30M, BTSC68EF. Dissociated BTSC spheres were seeded at 1500 cells/96-well and treated with drug compound or vehicle (DMSO) one day after plating. Cell viability following drug treatment was assessed after 72 hrs using the ALAMARBLUE™ assay (Invitrogen) according to the manufacturer's instructions. All culture experiments were performed in triplicate with a minimum of three wells per condition.
(§2) BTSC spheres were dissociated to single cells with the enzyme Accumax (Innovative Technologies), seeded at 1500 cells/96-well and treated with drug or vehicle (DMSO) one day after plating. […] BTSC spheres were dissociated to single cells as above and plated in 96 well plates in triplicate at 3000 cells/96-well. […] Cell viability following drug treatment was assessed three days later using the ALAMARBLUE™ assay (Invitrogen) according to the manufacturer's instructions. All culture experiments were performed in triplicate with a minimum of three wells per condition.

[3] = tested on: BTSC73M; assay: alamarBlue cell viability, BTSC 73M; settings: Table 4 library screen, alamarBlue; for IC50: Homo sapiens, read-out: 73M IC50
Description: as §1, §2

[4] = tested on: BTSC68EF; assay: alamarBlue cell viability, BTSC 68EF; settings: Table 4 library screen, alamarBlue; for IC50: Homo sapiens, read-out: 68EF IC50
Description: as §1, §2

SMILES	IC50 [2]	IC50 [3]	IC50 [4]	30M IC50 (μM) [2]	73M IC50 (μM) [3]	further results
CN(CC(=O)N(Cc1ccc(C2CCCCC2)cc1)c1ccc([N+](=O)[O-])cc1)S(=O)(=O)c1c(F)c(F)c(F)c(F)c1F [Compound 8, N-(4-cyclohexylbenzyl)-N-(4-nitrophenyl)-2-(2,3,4,5,6-pentafluoro-N-methylphenylsulfonamido)acetamide]	0.522 µM	1.1 µM	0.59 µM	–	–	IC50 [1]: 0.669 µM
Cc1ccc(S(=O)(=O)N(C)CC(=O)N(Cc2ccc(C3CCCCC3)cc2)c2ccc([N+](=O)[O-])cc2)cc1 [Compound 9, N-(4-cyclohexylbenzyl)-2-(N,4-dimethylphenylsulfonamido)-N-(4-nitrophenyl)acetamide]	–	–	–	no effect	no effect	147EF IC50 (μM) [1]: no effect; 68EF IC50 (μM) [4]: no effect
CN(CC(=O)N(Cc1ccc(C2CCCCC2)cc1)c1ccc(N)cc1)S(=O)(=O)c1c(F)c(F)c(F)c(F)c1F [Compound 10, N-(4-aminophenyl)-N-(4-cyclohexylbenzyl)-2-(2,3,4,5,6-pentafluoro-N-methylphenylsulfonamido)acetamide]	1.33 µM	1.81 µM	1.72 µM	–	–	IC50 [1]: 1.46 µM
CN(CC(=O)N(Cc1ccc(C2CCCCC2)cc1)c1ccc(NS(=O)(=O)c2ccc3ccccc3c2)cc1)S(=O)(=O)c1c(F)c(F)c(F)c(F)c1F [Compound 12, N-(4-cyclohexylbenzyl)-N-(4-(naphthalene-2-sulfonamido)phenyl)-2-(2,3,4,5,6-pentafluoro-N-methylphenylsulfonamido)acetamide]	–	–	–	no effect	no effect	–
CN(CC(=O)N(Cc1ccc(C2CCCCC2)cc1)c1ccc(NS(=O)(=O)c2ccc3ncccc3c2)cc1)S(=O)(=O)c1c(F)c(F)c(F)c(F)c1F [Compound 13, N-(4-cyclohexylbenzyl)-2-(2,3,4,5,6-pentafluoro-N-methylphenylsulfonamido)-N-(4-(quinoline-6-sulfonamido)phenyl)acetamide]	–	–	–	no effect	no effect	–
CN(CC(=O)N(Cc1ccc(C2CCCCC2)cc1)c1ccc(NS(C)(=O)=O)cc1)S(=O)(=O)c1c(F)c(F)c(F)c(F)c1F [Compound 14, N-(4-cyclohexylbenzyl)-N-(4-(methylsulfonamido)phenyl)-2-(2,3,4,5,6-pentafluoro-N-methylphenylsulfonamido)acetamide]	0.718 µM	1.81 µM	0.806 µM	–	–	–
CN(CC(=O)N(Cc1ccc(C2CCCCC2)cc1)c1ccc(NS(=O)(=O)c2cncn2C)cc1)S(=O)(=O)c1c(F)c(F)c(F)c(F)c1F [Compound 15, N-(4-cyclohexylbenzyl)-N-(4-(1-methyl-1H-imidazole-5-sulfonamido)phenyl)-2-(2,3,4,5,6-pentafluoro-N-methylphenylsulfonamido)acetamide]	0.607 µM	–	–	–	–	–
CN(CC(=O)N(Cc1ccc(C2CCCCC2)cc1)c1ccc(NS(N)(=O)=O)cc1)S(=O)(=O)c1c(F)c(F)c(F)c(F)c1F [Compound 16, N-(4-cyclohexylbenzyl)-2-(2,3,4,5,6-pentafluoro-N-methylphenylsulfonamido)-N-(4-(sulfamoylamino)phenyl)acetamide]	0.95 µM	2.04 µM	0.839 µM	–	–	–
CCOC(=O)C(=O)Nc1ccc(N(Cc2ccc(C3CCCCC3)cc2)C(=O)CN(C)S(=O)(=O)c2c(F)c(F)c(F)c(F)c2F)cc1 [Compound 17, ethyl 2-((4-(N-(4-cyclohexylbenzyl)-2-(2,3,4,5,6-pentafluoro-N-methylphenylsulfonamido)acetamido)phenyl)amino)-2-oxoacetate]	0.694 µM	1.24 µM	0.631 µM	–	–	–
CCOC(=O)C(=O)Nc1ccc(N(Cc2ccc(C3CCCCC3)cc2)C(=O)CN(C)S(=O)(=O)c2ccc(C)cc2)cc1 [Compound 18, ethyl 2-((4-(N-(4-cyclohexylbenzyl)-2-(N,4-dimethylphenylsulfonamido)acetamido)phenyl)amino)-2-oxoacetate]	–	–	–	no effect	no effect	IC50 [1]: 3.58 µM
CCOP(=O)(Cc1ccc(N(Cc2ccc(C3CCCCC3)cc2)C(=O)CN(C)S(=O)(=O)c2c(F)c(F)c(F)c(F)c2F)cc1)OCC [Compound 20, diethyl 4-(N-(4-cyclohexylbenzyl)-2-(2,3,4,5,6-pentafluoro-N-methylphenylsulfonamido)acetamido)benzylphosphonate]	0.664 µM	1.82 µM	–	–	–	68EF IC50 (μM) [4]: no effect
CN(CC(=O)N(Cc1ccc(C2CCCCC2)cc1)c1ccc(CP(=O)(O)O)cc1)S(=O)(=O)c1c(F)c(F)c(F)c(F)c1F [Compound 21, (4-(N-(4-cyclohexylbenzyl)-2-(2,3,4,5,6-pentafluoro-N-methylphenylsulfonamido)acetamido)benzyl)phosphonic acid]	–	–	–	–	no effect	–
CC(=O)OCOC(=O)c1ccc(N(Cc2ccc(C3CCCCC3)cc2)C(=O)CN(C)S(=O)(=O)c2c(F)c(F)c(F)c(F)c2F)cc1 [Compound 26, acetoxymethyl 4-(N-(4-cyclohexylbenzyl)-2-(2,3,4,5,6-pentafluoro-N-methylphenylsulfonamido)acetamido)benzoate]	1.95 µM	4.34 µM	–	–	–	–
CN(CC(=O)N(Cc1ccc(C2CCCCC2)cc1)c1ccc(NC(=O)C(=O)O)cc1)S(=O)(=O)c1c(F)c(F)c(F)c(F)c1F [Compound 28, 2-((4-(N-(4-cyclohexylbenzyl)-2-(2,3,4,5,6-pentafluoro-N-methylphenylsulfonamido)acetamido)phenyl)amino)-2-oxoacetic acid]	–	–	–	no effect	no effect	147EF IC50 (μM) [1]: no effect
CN(CC(=O)N(Cc1ccc(C2CCCCC2)cc1)c1ccc(O)cc1)S(=O)(=O)c1c(F)c(F)c(F)c(F)c1F [Compound 29, N-(4-cyclohexylbenzyl)-N-(4-hydroxphenyl)-2-(2,3,4,5,6-pentafluoro-N-methylphenylsulfonamido)acetamide]	0.941 µM	–	1.09 µM	–	–	–
CN(CC(=O)N(Cc1ccc(C2CCCCC2)cc1)c1cccc(O)c1)S(=O)(=O)c1c(F)c(F)c(F)c(F)c1F [Compound 30, N-(4-cyclohexylbenzyl)-N-(3-hydroxyphenyl)-2-(2,3,4,5,6-pentafluoro-N-methylphenylsulfonamido)acetamide]	0.776 µM	2.84 µM	–	–	–	–
CN(CC(=O)N(Cc1ccc(C2CCCCC2)cc1)c1ccc(C#N)cc1)S(=O)(=O)c1c(F)c(F)c(F)c(F)c1F [Compound 34, N-(4-cyanophenyl)-N-(4-cyclohexylbenzyl)-2-(2,3,4,5,6-pentafluoro-N-methylphenylsulfonamido)acetamide]	2.23 µM	–	–	–	no effect	–
CN(CC(=O)N(Cc1ccc(C2CCCCC2)cc1)c1ccc(-c2nnn[nH]2)cc1)S(=O)(=O)c1c(F)c(F)c(F)c(F)c1F [Compound 35, N-(4-(1H-tetrazol-5-yl)phenyl)-N-(4-cyclohexylbenzyl)-2-(2,3,4,5,6-pentafluoro-N-methylphenylsulfonamido)acetamide]	–	2.77 µM	–	no effect	–	68EF IC50 (μM) [4]: no effect
CN(CC(=O)N(Cc1ccc(C2CCCCC2)cc1)c1cc(C(=O)O)cc(C(=O)O)c1)S(=O)(=O)c1c(F)c(F)c(F)c(F)c1F [Compound 37, 5-(N-(4-cyclohexylbenzyl)-2-(2,3,4,5,6-pentafluoro-N-methylphenylsulfonamido)acetamido)isophthalic acid]	–	–	–	no effect	no effect	–
COC(=O)c1ccc(N(Cc2ccc(C3CCCCC3)cc2)C(=O)CN(C)S(=O)(=O)c2c(F)c(F)c(F)c(F)c2F)cc1 [Compound 39, methyl 4-(N-(4-cyclohexylbenzyl)-2-(2,3,4,5,6-pentafluoro-N-methylphenylsulfonamido)acetamido)benzoate]	1.09 µM	3.31 µM	0.607 µM	–	–	–
CCOC(=O)c1ccc(N(Cc2ccc(C3CCCCC3)cc2)C(=O)CN(C)S(=O)(=O)c2c(F)c(F)c(F)c(F)c2F)cc1 [Compound 40, ethyl 4-(N-(4-cyclohexylbenzyl)-2-(2,3,4,5,6-pentafluoro-N-methylphenylsulfonamido)acetamido)benzoate]	–	–	–	–	no effect	–
Cc1ccc(S(=O)(=O)N(C)CC(=O)N(Cc2ccc(C3CCCCC3)cc2)c2ccc(NC(=O)C(=O)O)cc2)cc1 [Compound 46, 2-((4-(N-(4-cyclohexylbenzyl)-2-(N,4-dimethylphenylsulfonamido)acetamido)phenyl)amino)-2-oxoacetic acid]	–	–	–	no effect	no effect	147EF IC50 (μM) [1]: no effect
